Data: ChEMBL document CHEMBL4609988, “Heterocycle amide isosteres: An approach to overcoming resistance for HIV-1 integrase strand transfer inhibitors” (Bioorg Med Chem Lett, 2020)

Key:
[1] = test system: Human immunodeficiency virus 1; assay: Ratio of EC50 for antiviral activity against HIV1 NL4-3 harboring Q148R mutant to EC50 for antiviral activity against HIV1 NL4-3; format: functional
[2] = test system: Human immunodeficiency virus 1; assay: Antiviral activity against HIV1 NL4-3 by cellular assay; format: functional, organism-based; conditions: Human immunodeficiency virus 1, NL4-3
[3] = test system: Human immunodeficiency virus 1; assay: Ratio of EC50 for antiviral activity against HIV1 NL4-3 harboring N155H mutant to EC50 for antiviral activity against HIV1 NL4-3; format: functional
[4] = test system: Human immunodeficiency virus 1; assay: Ratio of EC50 for antiviral activity against HIV1 NL4-3 harboring G140S/Q148H mutant to EC50 for antiviral activity against HIV1 NL4-3; format: functional
[5] = test system: Human immunodeficiency virus 1; assay: Antiviral activity against HIV1 NL4-3 harboring […]/Q148H mutant by cellular assay; format: functional, organism-based; conditions: Human immunodeficiency virus 1, NL4-3
[6] = test system: Human immunodeficiency virus 1; assay: Antiviral activity against HIV1 NL4-3 harboring N155H mutant by cellular assay; format: functional, organism-based; conditions: Human immunodeficiency virus 1, NL4-3
[7] = test system: Human immunodeficiency virus 1; assay: Antiviral activity against HIV1 NL4-3 harboring Q148R mutant by cellular assay; format: functional, organism-based; conditions: Human immunodeficiency virus 1, NL4-3
[8] = Clearance in rat at 1 mg/kg, iv; format: ADME, organism-based; conditions: in vivo
[9] = AUC in rat at 1 mg/kg, iv; format: ADME, organism-based; conditions: in vivo
[10] = Volume of distribution at steady state in rat at 1 mg/kg, iv; format: ADME, organism-based; conditions: in vivo, read-out: Vdss
[11] = molecular target: Human immunodeficiency virus type 1 integrase (Human immunodeficiency virus 1, UniProt Q7ZJM1); assay: Inhibition of HIV-1 integrase strand transfer activity
Chain of Human immunodeficiency virus type 1 integrase (Q7ZJM1 whole entry): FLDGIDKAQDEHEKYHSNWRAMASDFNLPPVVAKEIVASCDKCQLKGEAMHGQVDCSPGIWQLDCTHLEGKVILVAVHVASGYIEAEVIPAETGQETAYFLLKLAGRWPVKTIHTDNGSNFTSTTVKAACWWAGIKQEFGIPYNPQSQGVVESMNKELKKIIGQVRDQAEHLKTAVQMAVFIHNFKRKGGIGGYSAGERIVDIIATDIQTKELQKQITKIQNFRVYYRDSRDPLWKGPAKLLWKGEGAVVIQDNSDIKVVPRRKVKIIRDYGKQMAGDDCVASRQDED

SMILES	Ratio EC50 [1]	EC50 [2] [µM]	Ratio EC50 [3]	Ratio EC50 [4]	EC50 [5] [µM]	EC50 [6] [µM]	EC50 [7] [µM]	clearance [8] [mL/min/kg]	AUC [9] [µM·h]	Vd [10] [L/kg]	EC50 [11] [µM]
CC1(C)OCCn2c1nc(C(=O)NCc1ccc(F)cc1)c(O)c2=O	99	0.003	47	>2666	> 8	0.14	0.3	–	–	–	–
Cn1c(Cc2ccc(F)cc2)cnc1-c1nc2n(c(=O)c1O)CCOC2(C)C	–	0.01	–	–	0.53	0.036	0.061	11	3.92	0.5	–
CC1(C)OCCn2c1nc(-c1nc(Cl)c(Cc3ccc(F)cc3)[nH]1)c(O)c2=O	–	–	–	–	–	–	–	–	–	–	> 64
CC1(C)OCCn2c1nc(-c1ncn(Cc3ccc(F)cc3)n1)c(O)c2=O	34	0.007	2	563	3.7	0.016	0.22	52	0.872	1.5	–
CC1(C)OCCn2c1nc(-c1ncc(Cc3ccc(F)cc3)s1)c(O)c2=O	30	0.003	11	177	0.54	0.034	0.091	–	–	–	–
CC1(C)OCCn2c1nc(-c1nnc(Cc3ccc(F)cc3)[nH]1)c(O)c2=O	19	0.081	49	>500	> 40	4	1.5	–	–	–	–
CC1(C)OCCn2c1nc(-c1ncc(Cc3ccc(F)cc3)[nH]1)c(O)c2=O	6	0.006	0.3	54	0.32	0.002	0.033	10	4.55	0.3	–
Cn1cc(Cc2ccc(F)cc2)nc1-c1nc2n(c(=O)c1O)CCOC2(C)C	–	–	–	–	–	–	–	–	–	–	9.3
Cn1c(Cc2ccc(F)cc2)nnc1-c1nc2n(c(=O)c1O)CCOC2(C)C	–	0.081	–	–	1.1	–	0.45	–	–	–	–
CC1(C)OCCn2c1nc(-c1ncc(Cc3ccc(F)cc3)o1)c(O)c2=O	15	0.022	4	318	6.9	0.088	0.33	–	–	–	–
CC1(C)OCCn2c1nc(-c1nnc(Cc3ccc(F)cc3)o1)c(O)c2=O	0.5	0.39	3	>100	> 40	1.3	0.19	–	–	–	–
CC1(C)OCCn2c1nc(-c1cc(Cc3ccc(F)cc3)[nH]n1)c(O)c2=O	26	0.12	22	36	4.2	0.26	3	–	–	–	–
CC1(C)OCCn2c1nc(-c1cn(Cc3ccc(F)cc3)cn1)c(O)c2=O	7	0.004	2	80	0.32	0.009	0.026	127	0.353	3.5	–
Cc1nc(-c2nc3n(c(=O)c2O)CCOC3(C)C)nn1Cc1ccc(F)cc1	–	–	–	–	–	–	–	–	–	–	> 30
